# Assay results from patent US8624022B2, “Substituted aniline derivatives” (UCB Pharma, S.A., priority 2006, dated 2014).
# What was measured:
# [1] = target: β-1,3-glucan synthase from Aspergillus fumigatus (Aspergillus fumigatus, UniProt Q4WLT4); test: Glucan synthase assay (membrane preparation); type: biochemical; conditions: UDP-[3H]-glucose incorporation, 30° C., 120 minutes, read-out: A. fumigatus Glucan Synth IC50
# Procedure: (§1) The glucan synthase assay follows the incorporation of tritiated UDP-glucose into acid insoluble β-glucan as catalysed by the glucan synthase activity present in membrane preparations from Candida albicans and Aspergillus fumigatus. UDP-[^3H]-glucose (ca 0.01 μCi) is added to 100 μl assay buffer (50 mM Tris-Cl, pH8.0, 8% glycerol, 1 mM EDTA, 1.5 mM KF, 1 mM DTT, 20 μM GTPγS, 600 μM UDP-glucose) and the reaction initiated by the addition of 2.5 μl of enzyme preparation.
# (§2) After incubation at 30° C. for 120 minutes, 10 μl of 30 mg/ml BSA is added with mixing and the reaction is terminated with 110 μl ice-cold 20% TCA. The precipitate is collected on a GF/B filter plate and washed three times with 200 μl water. Once dry, 200 μl of Microscint20 is added to each well and the plate is read on a Top-count scintillation counter.
# [2] = target: β-1,3-glucan synthase from Candida albicans (Candida albicans, UniProt O13428); test: Glucan synthase assay (membrane preparation); type: biochemical; conditions: UDP-[3H]-glucose incorporation, 30° C., 120 minutes, read-out: C. albicans Glucan Synth IC50
# Procedure: as §1, §2
# [3] = system: Aspergillus fumigatus; test: Proliferation assay (growth, OD600nm); type: cell-based; conditions: whole organism growth, OD600nm over 6 hours at 25° C.
# Procedure: (§3) Overnight cultures of organism were diluted back to an OD600nm of 0.1 in fresh media. Test compounds were added in a final concentration of 0.5% DMSO and the OD600nm was followed over 6 hours incubation at 25° C. Compounds described herein were screened to determine their activity as inhibitors of β-1,3-glucan synthase from Candida albicans and Aspergillus fumigatus and for their ability to inhibit the growth of Candida albicans and Aspergillus fumigatus whole organisms.
# [4] = system: Candida albicans; test: Proliferation assay (growth, OD600nm); type: cell-based; conditions: whole organism growth, OD600nm over 6 hours at 25° C.
# Procedure: as §3
# β-1,3-glucan synthase from Aspergillus fumigatus, sequence (Q4WLT4 1-1904): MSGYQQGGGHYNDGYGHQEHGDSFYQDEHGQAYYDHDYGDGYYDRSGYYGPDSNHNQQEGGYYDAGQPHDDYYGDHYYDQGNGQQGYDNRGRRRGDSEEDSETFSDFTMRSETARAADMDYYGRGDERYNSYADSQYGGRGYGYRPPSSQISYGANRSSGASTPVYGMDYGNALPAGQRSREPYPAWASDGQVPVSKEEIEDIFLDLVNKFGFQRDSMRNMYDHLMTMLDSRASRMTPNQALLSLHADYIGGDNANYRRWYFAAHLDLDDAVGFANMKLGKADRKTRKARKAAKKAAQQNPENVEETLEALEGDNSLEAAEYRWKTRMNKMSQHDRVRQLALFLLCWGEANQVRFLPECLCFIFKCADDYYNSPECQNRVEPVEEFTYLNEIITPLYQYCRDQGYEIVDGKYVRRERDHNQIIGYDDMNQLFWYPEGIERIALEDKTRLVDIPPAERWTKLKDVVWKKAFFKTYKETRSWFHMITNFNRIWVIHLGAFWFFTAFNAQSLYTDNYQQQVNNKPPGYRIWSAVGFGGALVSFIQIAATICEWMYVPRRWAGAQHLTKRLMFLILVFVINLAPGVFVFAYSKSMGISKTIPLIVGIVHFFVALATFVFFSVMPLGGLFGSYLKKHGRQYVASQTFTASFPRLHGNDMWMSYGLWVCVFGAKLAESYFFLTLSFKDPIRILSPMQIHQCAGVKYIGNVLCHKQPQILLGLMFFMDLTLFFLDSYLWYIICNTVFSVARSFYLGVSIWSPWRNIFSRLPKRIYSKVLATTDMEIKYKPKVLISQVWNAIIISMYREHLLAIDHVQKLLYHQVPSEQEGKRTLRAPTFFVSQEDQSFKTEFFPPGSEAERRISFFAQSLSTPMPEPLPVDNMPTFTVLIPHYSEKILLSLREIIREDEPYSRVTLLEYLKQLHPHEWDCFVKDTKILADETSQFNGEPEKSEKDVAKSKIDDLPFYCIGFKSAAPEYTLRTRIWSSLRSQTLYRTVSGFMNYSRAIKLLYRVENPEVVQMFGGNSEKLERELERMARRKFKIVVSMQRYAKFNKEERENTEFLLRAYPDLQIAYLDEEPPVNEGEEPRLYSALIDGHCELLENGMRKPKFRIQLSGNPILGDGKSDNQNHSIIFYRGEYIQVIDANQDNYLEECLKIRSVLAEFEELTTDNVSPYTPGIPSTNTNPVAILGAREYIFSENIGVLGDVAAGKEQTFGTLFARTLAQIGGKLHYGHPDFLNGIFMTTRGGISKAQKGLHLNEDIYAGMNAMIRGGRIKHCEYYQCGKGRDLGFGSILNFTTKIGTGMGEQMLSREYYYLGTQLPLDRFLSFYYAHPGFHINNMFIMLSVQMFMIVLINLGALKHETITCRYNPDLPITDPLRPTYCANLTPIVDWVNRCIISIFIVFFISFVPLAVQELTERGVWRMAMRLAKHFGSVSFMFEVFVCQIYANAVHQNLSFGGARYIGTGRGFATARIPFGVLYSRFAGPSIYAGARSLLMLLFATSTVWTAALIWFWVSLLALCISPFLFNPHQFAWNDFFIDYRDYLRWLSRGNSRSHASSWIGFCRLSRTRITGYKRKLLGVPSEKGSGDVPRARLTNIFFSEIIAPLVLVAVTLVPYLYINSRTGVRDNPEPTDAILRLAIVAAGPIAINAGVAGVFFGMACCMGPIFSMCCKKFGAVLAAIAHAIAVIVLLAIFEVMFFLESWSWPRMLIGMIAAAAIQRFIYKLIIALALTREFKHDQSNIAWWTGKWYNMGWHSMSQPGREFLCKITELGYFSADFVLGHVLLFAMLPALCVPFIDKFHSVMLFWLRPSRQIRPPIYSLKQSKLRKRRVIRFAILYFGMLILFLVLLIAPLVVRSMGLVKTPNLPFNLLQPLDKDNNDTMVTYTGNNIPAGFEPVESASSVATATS
# β-1,3-glucan synthase from Candida albicans, sequence (O13428 1-1897): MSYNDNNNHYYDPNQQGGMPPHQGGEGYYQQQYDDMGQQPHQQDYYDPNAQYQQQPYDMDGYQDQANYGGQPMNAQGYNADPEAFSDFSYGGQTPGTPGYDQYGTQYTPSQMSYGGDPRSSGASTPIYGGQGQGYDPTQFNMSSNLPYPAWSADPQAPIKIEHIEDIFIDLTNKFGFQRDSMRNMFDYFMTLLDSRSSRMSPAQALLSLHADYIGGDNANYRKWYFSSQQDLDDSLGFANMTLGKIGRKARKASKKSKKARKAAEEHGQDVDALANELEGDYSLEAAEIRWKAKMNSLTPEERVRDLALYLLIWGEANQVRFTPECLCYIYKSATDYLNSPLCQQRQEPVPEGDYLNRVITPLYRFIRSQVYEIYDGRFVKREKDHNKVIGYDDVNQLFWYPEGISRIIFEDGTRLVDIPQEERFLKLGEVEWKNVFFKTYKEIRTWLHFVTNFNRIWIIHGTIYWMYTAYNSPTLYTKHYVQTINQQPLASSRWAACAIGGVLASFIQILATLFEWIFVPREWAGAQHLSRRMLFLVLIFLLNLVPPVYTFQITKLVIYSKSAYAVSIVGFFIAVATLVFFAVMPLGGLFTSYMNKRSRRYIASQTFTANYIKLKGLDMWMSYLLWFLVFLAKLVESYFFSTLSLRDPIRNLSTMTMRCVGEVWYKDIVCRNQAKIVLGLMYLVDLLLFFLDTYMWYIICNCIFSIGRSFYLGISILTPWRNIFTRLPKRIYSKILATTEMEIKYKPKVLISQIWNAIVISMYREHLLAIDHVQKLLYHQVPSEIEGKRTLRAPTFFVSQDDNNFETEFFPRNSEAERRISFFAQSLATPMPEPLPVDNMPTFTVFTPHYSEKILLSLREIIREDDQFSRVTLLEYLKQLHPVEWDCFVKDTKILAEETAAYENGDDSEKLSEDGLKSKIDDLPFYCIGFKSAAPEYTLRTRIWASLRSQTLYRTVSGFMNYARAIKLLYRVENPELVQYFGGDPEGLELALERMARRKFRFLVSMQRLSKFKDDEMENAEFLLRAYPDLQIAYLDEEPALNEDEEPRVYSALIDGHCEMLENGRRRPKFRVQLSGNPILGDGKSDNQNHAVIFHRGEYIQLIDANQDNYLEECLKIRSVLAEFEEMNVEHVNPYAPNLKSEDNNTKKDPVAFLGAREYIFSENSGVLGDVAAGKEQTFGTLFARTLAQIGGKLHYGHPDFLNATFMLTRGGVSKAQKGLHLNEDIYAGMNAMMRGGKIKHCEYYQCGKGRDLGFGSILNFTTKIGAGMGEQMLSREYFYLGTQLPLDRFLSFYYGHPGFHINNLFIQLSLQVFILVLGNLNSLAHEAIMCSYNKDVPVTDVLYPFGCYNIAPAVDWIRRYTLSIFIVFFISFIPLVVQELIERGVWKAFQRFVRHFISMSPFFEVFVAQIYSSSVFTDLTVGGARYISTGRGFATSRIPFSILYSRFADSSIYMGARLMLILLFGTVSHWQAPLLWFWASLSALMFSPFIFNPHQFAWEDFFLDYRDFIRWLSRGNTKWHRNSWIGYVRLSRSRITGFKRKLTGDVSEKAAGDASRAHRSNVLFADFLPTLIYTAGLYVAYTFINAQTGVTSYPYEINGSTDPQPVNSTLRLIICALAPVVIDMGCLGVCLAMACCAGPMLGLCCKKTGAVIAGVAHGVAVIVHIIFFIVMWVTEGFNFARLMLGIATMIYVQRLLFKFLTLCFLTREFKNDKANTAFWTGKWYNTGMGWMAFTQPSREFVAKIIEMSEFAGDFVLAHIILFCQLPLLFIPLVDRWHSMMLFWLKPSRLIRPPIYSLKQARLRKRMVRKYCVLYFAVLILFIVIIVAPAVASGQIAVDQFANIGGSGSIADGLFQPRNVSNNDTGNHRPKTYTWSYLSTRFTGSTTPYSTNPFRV
SMILES,IC50 [1],IC50 [2],IC50 [3],IC50 [4]
"N[C@H]1CCN(C(=O)CN(CC(=O)NCc2cccc(Cl)c2)c2ccccc2Oc2ccccc2)C1 [OGT3935, 2-[[2-((S)-3-Aminopyrrolidin-1-yl)-2-oxo-ethyl]-(2-phenoxyphenyl)amino]-N-(3-chlorobenzyl)acetamide]",38 µM,12 µM,93 µM,55 µM
"N[C@H]1CCN(C(=O)CN(CC(=O)NCc2cccc(Cl)c2)c2ccc(Oc3ccccc3)cc2)C1 [OGT4154, 2-[[2-((S)-3-Aminopyrrolidin-1-yl)-2-oxo-ethyl]-(4-phenoxyphenyl)amino]-N-(3-chlorobenzyl)acetamide]",–,–,12 µM,22 µM
"N[C@H]1CCN(C(=O)CN(CC(=O)NCc2cc(F)cc(C(F)(F)F)c2)c2ccc(Oc3ccccc3)cc2)C1 [OGT4155, 2-[[2-((S)-3-Aminopyrrolidin-1-yl)-2-oxo-ethyl]-(4-phenoxyphenyl)amino]-N-[3-fluoro-5-(trifluoromethyl)benzyl]acetamide]",5.2 µM,5.4 µM,14 µM,17 µM
"N[C@H]1CCN(C(=O)CN(CC(=O)NCc2cc(C(F)(F)F)cc(C(F)(F)F)c2)c2cccc(Oc3ccccc3)c2)C1 [OGT4165, 2-[[2-((S)-3-Aminopyrrolidin-1-yl)-2-oxo-ethyl]-(3-phenoxyphenyl)amino]-N-[3,5-bis-(trifluoromethyl)benzyl]acetamide]",6.2 µM,2.7 µM,43 µM,19 µM
"N[C@H]1CCN(C(=O)CN(C(=O)/C=C/c2ccccc2)c2ccc(-c3cccc(OC(F)(F)F)c3)cc2)C1 [OGT4325, (E)-N-[2-((S)-3-Aminopyrrolidin-1-yl)-2-oxo-ethyl]-3-phenyl-N-(3′-trifluoromethoxy-biphenyl-4-yl)-acrylamide]",15.6 µM,8.5 µM,–,8 µM
"N[C@H]1CCN(C(=O)CN(C(=O)/C=C/c2ccccc2)c2ccc(Oc3ccccc3)cc2)C1 [OGT4344, (E)-N-[2-((S)-3-Aminopyrrolidin-1-yl)-2-oxo-ethyl]-N-(4-phenoxyphenyl)-3-phenylacrylamide]",49 µM,34 µM,12 µM,27 µM
"CCOC(=O)c1cccc(-c2ccc(N(CC(=O)N3CC[C@H](N)C3)C(=O)/C=C/c3ccccc3)cc2)c1 [OGT4355, 4′-{[2-((S)-3-Aminopyrrolidin-1-yl)-2-oxo-ethyl]-[(E)-(3-phenylacryloyl)]-amino}-biphenyl-3-carboxylic acid, ethyl ester]",–,–,4 µM,18 µM
